Measurements taken from US20160368953A1, “BACTERIOCIN WITH NOVEL ACTIVITY” (The United States of America, as represented by the …, priority 2015, published 2016).

Columns and labels:
Streptococcus mutans = assay: agar diffusion method, zones of inhibition; assay type: cell-based; set-up: key to Growth Inhibitory Activity: +++ represents very strong growth inhibition; ++ represents strong growth inhibition; + represents mild growth inhibition; − represents no growth inhibition
Protocol: (§1) Bacteriocin activity is measured using an agar diffusion method (see, Gilbreth & Somkuti (2005)). Cultures of S. thermophilus strain 110 (NRRL B59671) and S. thermophilus strain LMD-9 are grown at 37° C. to an OD660 between 0.8 and 1.0 in 10 ml tryptone-yeast extract medium (Somkuti & Steinberg 1986) formulated with lactose (TYL) or glucose (TYG), or M17 medium (Becton Dickinson Co., Sparks, Md.) formulated with glucose (M17G) or lactose (M17L). Cells are pelleted by high-speed centrifugation for collection of cell-free supernatants (CFS). CFS (˜50 μl) are loaded into precast wells in an agar medium seeded with the target bacteria (0.5% v/v). Bacterial targets included: S. thermophilus strain ST113 in TYL, P. acidilactici in MRS (Becton Dickinson Co., Sparks, Md.), and L. innocua in BHI (Beckton Dickinson Co., Sparks, Md.). Plates are allowed to equilibrate overnight at 4° C., and then are incubated at 37° C. for 8 hours and are examined for the appearance of zones of inhibition.
(§2) S. thermophilus strain 110 (NRRL B59671) are grown overnight in tryptone-yeast extract-lactose (TYL) medium. The overnight culture is diluted in fresh TYL medium and grown for 7 or 24 hours. At each time point, a 1 ml sample is collected. Bacterial cells are removed from the 1 ml samples by centrifugation; and the cell free supernatants (CFS) are tested for antimicrobial activity using an agar diffusion method (see Gilbreth and Somkuti (2005) and Example 2 supra). Target agar plates are prepared by inoculating molten microbiological medium with the overnight growth of susceptible bacteria (0.5% v/v; 250 μl of culture into 50 ml of medium). The inoculated molten agar is poured into square dishes and left to harden at room temperature (approximately 10 minutes). Wells are made in the solidified agar plates using a sterile glass Pasteur pipette, and each well is filled with 50 μl of CFS samples. The agar plates are stored overnight at 4° C. to allow for diffusion of the CFS into the agar medium. The agar plates with loaded wells are then incubated at 37° C. to allow for growth of the target bacterium. The agar plates are monitored for growth of the target bacterium (agar medium becomes turbid), and the presence of clear zones around wells. […] Furthermore, antimicrobial activity is shown to be associated with a low-molecular weight peptide based on gel electrophoretic analysis (Gilbreth & Somkuti 2005). Agar diffusion assays are repeated a minimum of three times.

Streptococcus pyogenes = assay: agar diffusion method, zones of inhibition; assay type: cell-based; set-up: key to Growth Inhibitory Activity: +++ represents very strong growth inhibition; ++ represents strong growth inhibition; + represents mild growth inhibition; − represents no growth inhibition
Protocol: as §1, §2

Propionibacterium acnes = assay: agar diffusion method, zones of inhibition; assay type: cell-based; set-up: key to Growth Inhibitory Activity: +++ represents very strong growth inhibition; ++ represents strong growth inhibition; + represents mild growth inhibition; − represents no growth inhibition
Protocol: S. thermophilus strain 110 (NRRL B59671) are grown overnight in tryptone-yeast extract-lactose (TYL) medium. The overnight culture is diluted in fresh TYL medium and grown for 7 or 24 hours. At each time point, a 1 ml sample is collected. Bacterial cells are removed from the 1 ml samples by centrifugation; and the cell free supernatants (CFS) are tested for antimicrobial activity using an agar diffusion method (see Gilbreth and Somkuti (2005) and Example 2 supra). Target agar plates are prepared by inoculating molten microbiological medium with the overnight growth of susceptible bacteria (0.5% v/v; 250 μl of culture into 50 ml of medium). The inoculated molten agar is poured into square dishes and left to harden at room temperature (approximately 10 minutes). Wells are made in the solidified agar plates using a sterile glass Pasteur pipette, and each well is filled with 50 μl of CFS samples. The agar plates are stored overnight at 4° C. to allow for diffusion of the CFS into the agar medium. The agar plates with loaded wells are then incubated at 37° C. to allow for growth of the target bacterium. The agar plates are monitored for growth of the target bacterium (agar medium becomes turbid), and the presence of clear zones around wells. […]

[1] = test system: Lactobacillus acidophilus; assay: agar diffusion method, zones of inhibition; assay type: cell-based; set-up: key: +++ represents very strong growth inhibition; ++ represents strong growth inhibition; + represents mild growth inhibition; − represents no growth inhibition; conditions: 50 μl CFS of S. thermophilus strain 110 grown in TYL, 7 h and 24 h samples identical; target in MRS
Protocol: as §2

Streptococcus agalactiae = assay: agar diffusion method, zones of inhibition; assay type: cell-based; set-up: key: +++ represents very strong growth inhibition; ++ represents strong growth inhibition; + represents mild growth inhibition; − represents no growth inhibition; conditions: 50 μl CFS of S. thermophilus strain 110 grown in TYL, 7 h and 24 h samples identical; target in TYL
Protocol: as §2

[2] = test system: Streptococcus dysgalactiae; assay: agar diffusion method, zones of inhibition; assay type: cell-based; set-up: key: +++ represents very strong growth inhibition; ++ represents strong growth inhibition; + represents mild growth inhibition; − represents no growth inhibition; conditions: 50 μl CFS of S. thermophilus strain 110 grown in TYL, 7 h and 24 h samples identical; target in TYL
Protocol: as §2

Streptococcus uberus = assay: agar diffusion method, zones of inhibition; assay type: cell-based; set-up: key: +++ represents very strong growth inhibition; ++ represents strong growth inhibition; + represents mild growth inhibition; − represents no growth inhibition; conditions: 50 μl CFS of S. thermophilus strain 110 grown in TYL, 7 h and 24 h samples identical; target in TYL
Protocol: as §2

Listeria innocua = assay: agar diffusion method, zones of inhibition; assay type: cell-based; set-up: key: +++ represents very strong growth inhibition; ++ represents strong growth inhibition; + represents mild growth inhibition; − represents no growth inhibition; conditions: 50 μl CFS of S. thermophilus strain 110 grown in TYL, 7 h and 24 h samples identical; target in BHI
Protocol: as §1
(§3) S. thermophilus strain 110 (NRRL B59671) are grown overnight in tryptone-yeast extract-lactose (TYL) medium. The overnight culture is diluted in fresh TYL medium and grown for 7 or 24 hours. At each time point, a 1 ml sample is collected. […] The agar plates are monitored for growth of the target bacterium (agar medium becomes turbid), and the presence of clear zones around wells. […]

Pediococcus acidilactici [3] = assay: agar diffusion method, zones of inhibition; assay type: cell-based; set-up: key: +++ represents very strong growth inhibition; ++ represents strong growth inhibition; + represents mild growth inhibition; − represents no growth inhibition; conditions: 50 μl CFS of S. thermophilus strain 110 grown in TYL, 7 h and 24 h samples identical; target in MRS
Protocol: as §1, §3

Pediococcus acidilactici [4] = assay: antimicrobial activity of recombinant BlpU, SDS-PAGE gel overlay method; assay type: cell-based; conditions: expressed in E. coli BL21 pGEX-6P-1/blpU; before or after Factor Xa cleavage of the GST tag; FIG. 6
Excerpt: The nucleic acid sequence (162 base pairs; SEQ ID NO: 37) corresponding to the mature BlpU peptide (not including the 23 amino acid leader peptide) is amplified from the S. thermophilus strain 110 (NRRL-B59671) chromosome by PCR with the primers: forward: […] (BamHI—recognition site underlined; nucleotides encoding the Factor Xa recognition sequence (isoleucine-glutamic acid-glycine-arginine) are italicized) (SEQ ID NO: 34) and reverse: […] (XhoI—recognition site underlined) (SEQ ID NO: 35). […] The DNA fragment is subsequently cloned into the pGEX 6P-1 plasmid (GE Healthcare Life Sciences, Piscataway, N.J.) at the BamHI and XhoI sites. The resulting plasmid (pGEX 6P-1/blpU) encodes for a fusion protein with the glutathione S transferase (GST) tag on the N-terminus of BlpU, and expression is under control of an isopropyl β-D-1-thiogalactopyranoside (IPTG) inducible promoter. The plasmid is transformed into E. coli strain BL21 for recombinant expression of the fusion protein. […] The eluent from the dialysis bag is recovered and analyzed by SDS-PAGE for the presence of a ˜31 kDa fusion protein. […] The cleaved product is analyzed by SDS-PAGE for the presence of BlpU (silver nitrate staining) and antimicrobial activity against Pediococcus acidilactici (gel overlay method; Gilbreth and Somkuti, 2005).

Pediococcus acidilactici [5] = conditions: Gilbreth and Somkuti (2005); positive control; cited from earlier work
[6] = 50 μl CFS of S. thermophilus strain 110 grown in TYL, 7 h and 24 h samples identical, target in BHI

Q: What does the source list for “thermophilin 110: mature bacteriocin produced by S. thermophilus strain 110, amino acids 24-76 of SEQ ID NO: 1 (SEQ ID NO: 36), about 5 kDa (GCSWGGFAKQGVATGVGNGLRLGIKTRTWQGAVAGAAGGAIVGGVGYGATCWW; listed as Streptococcus thermophilus)”?
A: Growth Inhibitory Activity (Streptococcus mutans; 50 μl CFS of S. thermophilus strain 110 grown in TYL, 7 h and 24 h samples identical, target in Todd Hewitt): ++; growth inhibitory activity against S. mutans (in words) (Streptococcus mutans; text summary of Table 4): strong growth inhibitory activity; Growth Inhibitory Activity (Streptococcus pyogenes; [6]): +++; growth inhibitory activity against S. pyogenes (in words) (Streptococcus pyogenes; text summary of Table 4): very strong growth inhibitory activity; Growth Inhibitory Activity (Propionibacterium acnes; [6]): ++; growth inhibitory activity against P. acnes (in words) (Propionibacterium acnes; text summary of Table 4): strong growth inhibitory activity; Growth Inhibitory Activity [1]: +++; Growth Inhibitory Activity (Streptococcus agalactiae): −; Growth Inhibitory Activity [2]: −; Growth Inhibitory Activity (Streptococcus uberus): +; Growth Inhibitory Activity (Listeria innocua): +; Growth Inhibitory Activity (Pediococcus acidilactici [3]): +++; antimicrobial activity against P. acidilactici (Pediococcus acidilactici [4]): inhibition zone; zones of inhibition against P. acidilactici in prior studies (Pediococcus acidilactici [5]): very strong zones of inhibition
